Laboratory results from patent US11179322B2, “Methods and compositions for treating tumors with TTFields and sorafenib” (Novocure GmbH, priority 2018, dated 2021).

Experiments:
HepG2 cells [1] = test: Cytotoxicity assay and overall effect (cell counts by flow cytometry); assay type: cell-based, human
Experimental: (§1) All combination experiments were performed at a frequency of 150 kHz. In these examples, the electric field intensity was 1.0 V/cm for HepG2 and 1.7 V/cm for Huh-7D12 cells. Both cell lines were grown at various sorafenib concentrations (0.1-3.0 μM), and were treated with TTFields for 72 hours. […] The number of cells was determined at the end of treatment and is expressed as a percentage of control cells.
(§2) Sorafenib was obtained from BioVision, USA.
(§3) TTFields (1.0-1.7 V/cm RMS, 150 kHz) were applied for 72 hours to cell lines using the Inovitro™ system. At the end of treatment, inhibition of tumor cell growth was analysed quantitatively based on cell counts performed on EC800 flow cytometer (Sony Biotechnology, Japan).

Huh-7D12 cells [2] = test: as above; assay type: cell-based, human
Experimental: as §1, §2, §3

HepG2 cells [3] = test: Clonogenic survival; assay type: cell-based, human
Experimental: as §2
(§4) At the end of treatment, cells were removed with trypsin, counted, plated in 6-well plates (300 cells/plate) and incubated for 2-3 weeks in CO2 incubator at 37° C. When colonies reached 40-100 cells/colony, they were fixed with 100% methanol, stained with 0.5% crystal violet (Sigma), photographed, and the number of clones was quantified using ImageJ program.

Huh-7D12 cells [4] = test: Clonogenic survival; assay type: cell-based, human
Experimental: as §2, §4

[5] = tested on: N1S1 Hepatocellular Carcinoma; test: N1S1 orthotopic HCC rat model, tumor volume by MRI; assay type: in vivo; conditions: Sprague Dawley rats, N1S1 liver tumor, sorafenib 10 mg/kg/day IP + TTFields 150 kHz 2.86 V/cm
Experimental: In this experiment, the volume of the tumor was measured using MRI on day 6 (one day before treatment start) and day 14 (one day after the end of treatment); and each data point in FIG. 7 represents the volume of the tumor on day 14 divided by the volume of the tumor on day 6. Thus, numbers greater than 1 represent growth in the tumor volume, and numbers smaller than 1 represent a tumor that has shrunk between day 6 and day 14.
In the first part, the efficacy of different Sorafenib concentrations in combination with TTFields was tested, and one concentration was used during future experiments (10 mg/kg/day over 5 days). In the following experiments, the combined treatment of a single Sorafenib concentration and TTFields (150 kHz) was tested.
All animals were injected orthotopically to the left lobe of the liver with N1S1 Hepatocellular Carcinoma model (Garin E. et al., 2005) by day 0 as described in SOP-BI-036. The peritoneum was closed using sutures and the wound was closed using clips. On day 6, all animals underwent first MRI (as described in SOP-BI-029) and were randomly divided into groups. […]
Tumor volume was determined based on MRI scans on days 7, 14 and day 21 after injection. […] Tumor volume was measured by manual segmentation of the tumor using ITK-SNAP version 3.6.0-rc1 free software.

HepG2 cells [6] = test: Apoptosis induction (FITC Annexin V / 7-AAD flow cytometry)
Experimental: (§5) The exemplary effects of the combined treatment of TTFields and sorafenib was tested using the following human HCC cell lines: HepG2 (ATCC) and Huh-7D12 (Sigma). All cells were grown in a humidified incubator supplied with 5% CO2. HepG2 were maintained in EMEM, supplemented with 10% FBS, 2 mmol/L glutamine, Pen-Strep solution (100 units/ml Penicillin and 0.1 mg/ml Streptomycin), 1 mmol/L sodium pyruvate and 1% NEAA. […] Sorafenib was obtained from BioVision, USA.
(§6) For apoptosis analysis, cells were removed with Trypsin immediately after 72 h treatment, washed twice with ice-cold PBS with 1% FBS, and stained using FITC Annexin V Apoptosis Detection Kit and 7-AAD (BioLegend, USA). Early, late, and total apoptosis was then quantified using the EC800 flow cytometer (Sony Biotechnology, Japan).

Huh-7D12 cells [7] = test: as above
Experimental: as §5, §6

For `CNC(=O)c1cc(Oc2ccc(NC(=O)Nc3ccc(Cl)c(C(F)(F)F)c3)cc2)ccn1` [sorafenib, 4-[4-[[4-chloro-3-(trifluoromethyl)phenyl]carbamoylamino]phenoxy]-N-methylpyridine-2-carboxamide], the “cytotoxicity of combined treatment of TTFields and sorafenib” value (HepG2 cells [1]; HepG2, sorafenib 0.1-3.0 μM + TTFields 150 kHz 1.0 V/cm, 72 hours, 2-way ANOVA p<0.001) was “enhanced cytotoxicity”, the “overall effect, sorafenib in combination with TTFields vs sorafenib alone” value (HepG2 cells [1]; HepG2, sorafenib 0.1-3.0 μM, TTFields 1.0 V/cm) was “improvement provided by TTFields can be seen even at low levels of sorafenib” and the IC50 (HepG2 cells [1]; Homo sapiens, HepG2, sorafenib alone, 72 hours, read-out: IC50 (number of cells, percentage of control)) was roughly 1000 nM. The IC50 (Huh-7D12 cells [2]; Homo sapiens, Huh-7D12, sorafenib alone, 72 hours, read-out: IC50 (number of cells, percentage of control)) was roughly 1000 nM, the “cytotoxicity of combined treatment of TTFields and sorafenib” value (Huh-7D12 cells [2]; Huh-7D12, sorafenib 0.1-3.0 μM + TTFields 150 kHz 1.7 V/cm, 72 hours, 2-way ANOVA p<0.001) was “enhanced cytotoxicity” and the “overall effect, sorafenib in combination with TTFields vs sorafenib alone” value (Huh-7D12 cells [2]; Huh-7D12, sorafenib 0.1-3.0 μM, TTFields 1.7 V/cm) was “improvement provided by TTFields can be seen even at low levels of sorafenib”. The “clonogenic potential, sorafenib monotherapy” value (HepG2 cells [3]; HepG2, escalating dose of sorafenib alone) was “reduction in the clonogenic potential”, the “clonogenic survival, combined treatment of TTFields and sorafenib” value (HepG2 cells [3]; HepG2, sorafenib + TTFields 150 kHz 1.0 V/cm, 72 hours) was “additional reduction in the clonogenic survival” and the “clonogenic potential, sorafenib monotherapy” value (Huh-7D12 cells [4]; Huh-7D12, escalating dose of sorafenib alone) was “reduction in the clonogenic potential”. The “clonogenic survival, combined treatment of TTFields and sorafenib” value (Huh-7D12 cells [4]; Huh-7D12, sorafenib + TTFields 150 kHz 1.7 V/cm, 72 hours) was “additional reduction in the clonogenic survival”, the “tumor volume (day 14 divided by day 6, MRI), combination of TTFields and sorafenib” value [5] was “synergistic decrease in tumor volume” and the “apoptotic events, sorafenib alone” value (HepG2 cells [6]; HepG2, 72 hours, sorafenib from no drug to 3 μM) was “increased apoptotic events”. For the same molecule, the “additional increase in apoptosis, sorafenib with TTFields” value (HepG2 cells [6]; HepG2, sorafenib + TTFields 150 kHz 1.0 V/cm, 72 hours, range stated for both cell lines) was 10-45%, the “apoptotic events, sorafenib alone” value (Huh-7D12 cells [7]; Huh-7D12, 72 hours, sorafenib from no drug to 3 μM) was “increased apoptotic events” and the “additional increase in apoptosis, sorafenib with TTFields” value (Huh-7D12 cells [7]; Huh-7D12, sorafenib + TTFields 150 kHz 1.7 V/cm, 72 hours, range stated for both cell lines) was 10-45%.
